According to PubChem BioAssay (NCI):
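Growth conditions: 96-well plates. Treatment: test compound, 48 hours, 5 concentrations. Analysis: linear interpolation between bracketing concentrations; unreached endpoints set to highest concentration. GI50 is the concentration that inhibits growth by half. TGI: concentration producing complete growth inhibition.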 *1 amine or outer side, *2 acyl side, *3 side chain or, on linkers, in order; H or OH if unused. Where a SMILES comes first, the peptide text is derived from it. Bridges are numbered along the chain shown (N, C = ends). Roman numbers before positions name the chains, in order. [ ]: non-standard residue; d: D form. Actinocin(9to1) = Cc1c2oc3c(C)ccc(C(=O)[*:1])c3nc-2c(C(=O)[*:2])c(N)c1=O; NMeV = CN[CH](C(=O)O)C(C)C; Sar = CNCC(=O)O

Tests used:
Experiment in all cases: NCI tumour cell line growth inhibition, 48 h
UO-31 renal = system: UO-31 renal
M14 melanoma = system: M14 melanoma
COLO 205 colon = system: COLO 205 colon
SNB-75 CNS = system: SNB-75 CNS
ACHN renal = system: ACHN renal
MALME-3M melanoma = system: MALME-3M melanoma
SNB-19 CNS = system: SNB-19 CNS
SF-268 CNS = system: SF-268 CNS
OVCAR-4 ovarian = system: OVCAR-4 ovarian
SK-OV-3 ovarian = system: SK-OV-3 ovarian
NCI-H23 lung = system: NCI-H23 lung
A498 renal = system: A498 renal
NCI/ADR-RES ovarian = system: NCI/ADR-RES ovarian
MCF7 breast = system: MCF7 breast
MDA-MB-231 breast = system: MDA-MB-231 breast

| SMILES | TGI (UO-31 renal) | TGI (M14 melanoma) | TGI (COLO 205 colon) | TGI (SNB-75 CNS) | TGI (ACHN renal) | TGI (MALME-3M melanoma) | TGI (SNB-19 CNS) | GI50 (SF-268 CNS) | TGI (SF-268 CNS) | TGI (OVCAR-4 ovarian) | TGI (SK-OV-3 ovarian) | TGI (NCI-H23 lung) | TGI (A498 renal) | TGI (NCI/ADR-RES ovarian) | TGI (MCF7 breast) | TGI (MDA-MB-231 breast) |
| --- | --- | --- | --- | --- | --- | --- | --- | --- | --- | --- | --- | --- | --- | --- | --- | --- |
| O=c1cc(-c2ccc3c(c2)OCO3)[nH]c2cc3c(cc12)OCO3 | > 100 µM | > 100 µM | > 100 µM | 13.7 µM | > 100 µM | 97.8 µM | > 100 µM | 46.8 µM | > 100 µM | > 100 µM | 99.4 µM | > 100 µM |  |  |  |  |
| CCOC(=O)/C(=C/c1ccc(OC)cc1)N(CC)CC | > 100 µM | > 100 µM | > 100 µM |  | > 100 µM | > 100 µM | > 100 µM |  | > 100 µM | > 100 µM | > 100 µM | > 100 µM | > 100 µM |  |  |  |
| CCOC(=O)c1cc(-c2ccc(OC)cc2)c([N+](=O)[O-])n1C | > 10 µM | > 10 µM |  | > 10 µM | > 10 µM | > 10 µM | > 10 µM |  | > 10 µM | > 10 µM |  | > 10 µM |  | > 10 µM |  |  |
| N#Cc1cccc(-n2[nH]c(=O)ccc2=O)c1 | > 100 µM | > 100 µM | > 100 µM | > 100 µM | > 100 µM | > 100 µM | > 100 µM |  | > 100 µM | > 100 µM |  | > 100 µM |  |  |  |  |
| COc1cc2c(cc1O)[C@H](C)C(c1ccc(OC)c(OC)c1)O2 (stereo partly specified) | 64 µM | 15.9 µM | 49.2 µM | 11.7 µM | 22.4 µM | 22.8 µM | 65.3 µM |  | > 100 µM | 26.2 µM | > 100 µM | 28.1 µM | > 100 µM |  |  |  |
| CCCC/C=C/C=C/C=C/CCCCCCCC(=O)OCC(COC(=O)CCCCCCC/C=C/C1C=CC(CCCC)C(C(=O)O)C1C(=O)O)OC(=O)CCCCCCC/C=C/C=C/C=C/CCCC (stereo unspecified) (tested in a mixture with another compound) | 34.7 µM | 29.7 µM | 29.3 µM | 36.7 µM | 33.2 µM | 35.8 µM | 46.1 µM |  | 36.1 µM | 34.7 µM | 44.6 µM | 40.3 µM | 34.4 µM |  |  |  |
| O=C(Nc1c(O)[nH]c(=S)[nH]c1=O)c1ccccc1 | > 100 µM | > 100 µM | > 100 µM | > 100 µM | > 100 µM | > 100 µM | > 100 µM |  | > 100 µM | > 100 µM | > 100 µM | > 100 µM | > 100 µM |  |  |  |
| O=c1[nH]c2cc(Cl)ccc2nc1/C(=N\Nc1ccccc1)C(O)c1ccc(Cl)c(Cl)c1 (stereo unspecified) | > 100 µM | > 100 µM | > 100 µM | > 100 µM | > 100 µM | > 100 µM | > 100 µM |  | > 100 µM | > 100 µM | > 100 µM | > 100 µM |  |  |  |  |
| Cc1cn(C2OC(CO[Si](C)(C)C(C)(C)C)C(N(C)O[Si](C)(C)C(C)(C)C)C2[Se]c2ccccc2)c(=O)[nH]c1=O (stereo unspecified) | 13.7 µM | 50.8 µM | > 100 µM | 21.4 µM | 18.3 µM | 29.4 µM | 32.2 µM |  | 10.2 µM | 8.58 µM | > 100 µM | 24.6 µM | 49.5 µM | 58 µM | 25.4 µM | 43.8 µM |
| CCOC(=O)C12OC(OCC)(CC1(OCC)OCC)C1(CC1)C2=O (stereo unspecified) | > 100 µM | > 100 µM | > 100 µM | > 100 µM | > 100 µM | > 100 µM | > 100 µM |  | > 100 µM | > 100 µM | > 100 µM | > 100 µM | > 100 µM | > 100 µM | > 100 µM | > 100 µM |
| CCn1cnc2c(=S)nc(N)[nH]c21 | > 100 µM | > 100 µM | > 100 µM | > 100 µM | > 100 µM | > 100 µM | > 100 µM |  | > 100 µM |  | > 100 µM | > 100 µM |  |  |  |  |
| COc1cc(-c2cccs2)sc1-c1cccs1 | > 100 µM | > 100 µM | 27.3 µM | 66.5 µM | > 100 µM | > 100 µM | > 100 µM |  | > 100 µM | > 100 µM | > 100 µM | > 100 µM |  |  |  |  |
| C/C(CN1C(=O)c2ccccc2C1=O)=N\NS(=O)(=O)c1ccc(Cl)cc1 | > 100 µM | > 100 µM | > 100 µM | > 100 µM | > 100 µM | > 100 µM | > 100 µM |  |  | > 100 µM |  | > 100 µM | > 100 µM |  |  |  |
| COc1cc(OCCN(C)C)c2[nH]c(C(=O)N3CC(CCl)c4ccc(N)cc43)cc2c1 (stereo unspecified) | 2.25 µM | 1.13 µM | 0.17 µM | 0.565 µM |  |  | 2.59 µM |  | 0.908 µM | 1.32 µM | 32 µM | 0.316 µM | 0.508 µM | 1 µM | 0.133 µM | 9.37 µM |
| COCCOCOC(CCCCO)c1cc(C)c(O[Si](C)(C)C(C)(C)C)c(C)c1 (stereo unspecified) | 17.2 µM | 23.1 µM | 22.3 µM | 23.9 µM | 21.6 µM | 13.3 µM | 19.2 µM |  | 20.4 µM |  | 31.8 µM | 18.7 µM | 26.9 µM |  |  |  |
| O=S(=O)(O)c1cc(N=Nc2c(O)ccc3ccccc23)cc2c(S(=O)(=O)O)cccc12 | > 100 µM | > 100 µM | > 100 µM | > 100 µM | > 100 µM | > 100 µM | > 100 µM |  | > 100 µM | > 100 µM | > 100 µM |  | > 100 µM | > 100 µM | > 100 µM | > 100 µM |
| CCNC(=O)c1ccc(C)c(N=NN(C)C)c1 | > 100 µM | > 100 µM |  |  | > 100 µM |  | > 100 µM |  | > 100 µM | > 100 µM |  | > 100 µM |  |  |  |  |
| CON(C)C(=O)C(C)N(Cc1ccccc1)Cc1ccccc1 (stereo unspecified) | > 100 µM | > 100 µM |  | > 100 µM | > 100 µM | > 100 µM | > 100 µM |  | > 100 µM |  | > 100 µM | > 100 µM | > 100 µM | > 100 µM | > 100 µM |  |
| COc1ccc(C2Oc3cc(OC)c(OC)cc3C2CCl)cc1OC (stereo unspecified) | > 100 µM | > 100 µM | > 100 µM | > 100 µM | > 100 µM | > 100 µM | > 100 µM |  | > 100 µM | > 100 µM |  |  | > 100 µM |  |  |  |
| O=C1/C(=C/c2ccco2)NC(=S)N1CN1CCCCC1 | > 100 µM | > 100 µM | > 100 µM | > 100 µM | > 100 µM | > 100 µM | > 100 µM |  | > 100 µM | 86 µM | > 100 µM | > 100 µM | > 100 µM | > 100 µM | > 100 µM | > 100 µM |
| Cc1c2oc3c(C)ccc(C(=O)NC4C(=O)NC(C(C)C)C(=O)N5CCCC5C(=O)N(C)CC(=O)N(C)C(C(C)C)C(=O)OC4C)c3nc-2c(C(=O)NC2C(=O)NC(C(C)C)C(=O)N3CCCC3C(=O)N(C)CC(=O)N(C)C(C(C)C)C(=O)OC2C)c(N)c1=O (stereo unspecified) (I: TVP[Sar][NMeV] / II: TVP[Sar][NMeV]; ester I:1-I:C, II:1-II:C; linker I:N-II:N via Actinocin(9to1); configuration not given here) | 0.12 µM | 0.0207 µM | 0.00299 µM | 0.000907 µM |  | 0.0145 µM | > 0.35 µM |  | 0.0269 µM | 0.00187 µM | > 1 µM | 0.00481 µM | 0.0152 µM | > 1 µM | 0.00342 µM | > 0.231 µM |
| Nc1nc(Cl)cc(OCC2(CO)CC=CC2)n1 |  |  |  | > 100 µM | > 100 µM | > 100 µM | > 100 µM |  | > 100 µM | > 100 µM |  | > 100 µM | > 100 µM | > 100 µM | > 100 µM |  |
| C=C1c2nc3ccccc3n2C=C(c2ccc(OC)cc2)N1c1ccc(OC)cc1 | 58.5 µM | > 100 µM | > 100 µM | 30.6 µM | 25 µM | 48.4 µM | 33.9 µM |  |  | > 100 µM | 63.4 µM | 78.2 µM | 64.9 µM | 31.8 µM | > 100 µM | 75.9 µM |
| COC(=O)c1ccc(Cc2cc(Cc3ccc(C(=O)OC)cc3)cc(Cc3ccc(C(=O)OC)cc3)c2)cc1 | > 25 µM | > 25 µM |  | > 25 µM | > 25 µM | > 25 µM | > 25 µM |  | > 25 µM | > 25 µM | > 25 µM |  | > 25 µM | > 25 µM | > 25 µM | > 25 µM |
| N#Cc1nc(-c2cnccn2)oc1N | > 100 µM | > 100 µM |  | > 100 µM | > 100 µM |  | > 100 µM |  | > 100 µM |  | > 100 µM |  | > 100 µM |  | > 100 µM | > 100 µM |
| CNC(=O)NCCCC(NC(C)=O)C(=O)NCc1ccccc1 (stereo unspecified) | > 100 µM | > 100 µM | > 100 µM | > 100 µM | > 100 µM | > 100 µM | > 100 µM |  | > 100 µM | > 100 µM | > 100 µM | > 100 µM | > 100 µM |  |  |  |
